Tested on: patients with refractory metastatic colorectal cancer (mCRC)
Test: PFS, OS and disease control in the training (evaluation) cohort of refractory mCRC patients receiving TAS-102 (n=52, Japan), by baseline characteristics, SNP genotype and toxicity
Format: in vivo, human
Settings: for Overall Survival Median, months / Progression-Free Survival Median, months / Overall Survival HR / Progression-Free Survival HR / HR for OS / HR for PFS: evaluation cohort
Experimental: All patients underwent the treatment in salvage-line setting. […]
Genomic DNA was extracted from peripheral whole blood in patients of all cohorts using the QIAmp Kit (Qiagen, Valencia, Calif., USA) according to the manufacturer's protocol (www.qiagen.com). The candidate SNPs were genotyped using PCR-based direct DNA sequence analysis by ABI 3100A Capillary Genetic Analyzer and Sequencing Scanner v1.0 (Applied Biosystems). Amplification of extracted DNA was carried out using both forward and reverse primers for each gene polymorphism as shown in Table 1. […] The investigators analyzing SNPs were blinded to the clinical data of the study patients.
The primary endpoint in this study was progression-free survival (PFS), and the secondary endpoints were overall survival (OS) and disease control rate (DCR). PFS was calculated from the date of starting treatment to the first observation of disease progression or death from any cause. If a patient had no disease progression or death, PFS was censored at the date of last follow up. OS was calculated from the date of starting treatment until the date of death from any cause or the date of the last follow-up, at which point OS was censored. The disease control rate (DCR) was defined as the proportion of patients who achieved a stable disease (SD) or […] according to RECISTv1.1. Chi-square test was used to examine the difference in baseline patient characteristics among the three cohorts. Allelic distribution of all SNPs by ethnicity for deviation from Hardy-Weinberg equilibrium and the allelic frequencies of SNPs were tested using the Chi-square tests with one degree of freedom. The associations between candidate SNPs and disease control, and toxicities were examined using contingency tables and Fisher's exact test. The associations of SNPs with PFS and OS were analysed using Kaplan-Meier curves and the log-rank test. Because the true mode of inheritance of candidate SNPs was not established yet, a codominant or dominant genetic model if appropriate was considered.
All patients underwent the treatment in salvage-line setting. […] In all patients, adverse events were graded according to the Common Terminology Criteria for Adverse Events, version 4.0. […]
Genomic DNA was extracted from peripheral whole blood in patients of all cohorts using the QIAmp Kit (Qiagen, Valencia, Calif., USA) according to the manufacturer's protocol (www.qiagen.com). The candidate SNPs were tested using PCR-based direct DNA sequence analysis by ABI 3100A Capillary Genetic Analyzer and Sequencing Scanner v1.0 (Applied Biosystems). […] The investigators analyzing SNPs were blinded to the clinical data.
The primary endpoint in this study was progression-free survival (PFS), and the secondary endpoints were overall survival (OS) and disease control rate (DCR).

[1] = Performance status ECOG 1 vs ECOG 0, univariate
[2] = Peritoneal No vs Yes, univariate
[3] = Pre-chemo numbers ≥4 vs <4, univariate
[4] = Primary tumor resection No vs Yes, univariate
[5] = Prior EGFR No vs Yes, univariate
[6] = Prior REGORA No vs Yes, univariate
[7] = Prior bev No vs Yes, univariate
[8] = Tumor site Left vs Right, univariate
[9] = XRCC3 rs861539 G/A vs G/G, univariate
[10] = p21 rs1059234 Any C vs T/T, multivariable
[11] = p21 rs1059234 Any C vs T/T, univariate
[12] = p21 rs1059234 C/C vs T/T, multivariable
[13] = p21 rs1059234 C/C vs T/T, univariate
[14] = p21 rs1059234 T/C vs T/T, multivariable
[15] = p21 rs1059234 T/C vs T/T, univariate
[16] = p21 rs1801270 A/C vs A/A, multivariable
[17] = p21 rs1801270 A/C vs A/A, univariate

For Trifluridine/tipiracil [TAS-102], the “Overall Survival Median, months” value (Number of metastases ≤2) was 8.3 months, the “Progression-Free Survival Median, months” value (Number of metastases ≤2) was 2.7 months and the “Overall Survival Median, months” value (Performance status ECOG 0) was 8.7 months. For the same substance, the “Progression-Free Survival Median, months” value (Performance status ECOG 0) was 2.9 months, the “Overall Survival Median, months” value (Performance status ECOG 1) was 7.2 months and the “Progression-Free Survival Median, months” value (Performance status ECOG 1) was 2.7 months. For the same substance, the “Overall Survival HR” value [1] was 1.42, the “Progression-Free Survival HR” value [1] was 1.06 and the “Overall Survival Median, months” value (Peritoneal No) was 8.3 months. The “Progression-Free Survival Median, months” value (Peritoneal No) was 2.3 months, the “Overall Survival HR” value [2] was 0.84 and the “Progression-Free Survival HR” value [2] was 1.48. For the same substance, the “Overall Survival Median, months” value (Peritoneal Yes) was 6.3 months, the “Progression-Free Survival Median, months” value (Peritoneal Yes) was 3.1 months and the “Overall Survival Median, months” value (Pre-chemo numbers <4) was 8.7 months. For the same substance, the “Progression-Free Survival Median, months” value (Pre-chemo numbers <4) was 3.0 months, the “Overall Survival Median, months” value (Pre-chemo numbers ≥4) was 6.3 months and the “Progression-Free Survival Median, months” value (Pre-chemo numbers ≥4) was 2.1 months. The “Overall Survival HR” value [3] was 2.48, the “Progression-Free Survival HR” value [3] was 1.73 and the “Overall Survival Median, months” value (Primary tumor resection No) was 8.1+ months. For the same substance, the “Progression-Free Survival Median, months” value (Primary tumor resection No) was 2.1 months, the “Overall Survival HR” value [4] was 1.72 and the “Progression-Free Survival HR” value [4] was 1.39. For the same substance, the “Overall Survival Median, months” value (Primary tumor resection Yes) was 8.1 months, the “Progression-Free Survival Median, months” value (Primary tumor resection Yes) was 3.0 months and the “Overall Survival Median, months” value (Prior EGFR No) was 15.6+ months. The “Progression-Free Survival Median, months” value (Prior EGFR No) was 3.7 months, the “Overall Survival HR” value [5] was 0.35 and the “Progression-Free Survival HR” value [5] was 0.49. For the same substance, the “Overall Survival Median, months” value (Prior EGFR Yes) was 6.3 months, the “Progression-Free Survival Median, months” value (Prior EGFR Yes) was 2.1 months and the “Overall Survival Median, months” value (Prior REGORA No) was 14.8+ months. For the same substance, the “Progression-Free Survival Median, months” value (Prior REGORA No) was 3.7 months, the “Overall Survival HR” value [6] was 0.50 and the “Progression-Free Survival HR” value [6] was 0.65. For the same substance, the “Overall Survival Median, months” value (Prior REGORA Yes) was 8.1 months, the “Progression-Free Survival Median, months” value (Prior REGORA Yes) was 2.1 months and the “Overall Survival Median, months” value (Prior bev No) was 4.1 months. For the same substance, the “Progression-Free Survival Median, months” value (Prior bev No) was 2.5 months, the “Overall Survival HR” value [7] was 3.43 and the “Progression-Free Survival HR” value [7] was 1.86. For the same substance, the “Overall Survival Median, months” value (Prior bev Yes) was 8.3 months, the “Progression-Free Survival Median, months” value (Prior bev Yes) was 2.9 months and the “Overall Survival Median, months” value (Sex Female) was 8.3 months. For the same substance, the “Progression-Free Survival Median, months” value (Sex Female) was 3.4 months, the “Overall Survival HR” value (Sex Female vs Male, univariate) was 0.47 and the “Progression-Free Survival HR” value (Sex Female vs Male, univariate) was 0.60. The “Overall Survival Median, months” value (Sex Male) was 4.9 months, the “Progression-Free Survival Median, months” value (Sex Male) was 2.1 months and the “Overall Survival Median, months” value (Tumor site Left) was 8.1 months. The “Progression-Free Survival Median, months” value (Tumor site Left) was 2.9 months, the “Overall Survival HR” value [8] was 0.97 and the “Progression-Free Survival HR” value [8] was 1.30. For the same substance, the “Overall Survival Median, months” value (Tumor site Right) was 8.7 months, the “Progression-Free Survival Median, months” value (Tumor site Right) was 3.3 months and the “HR for OS” value (XRCC3 rs861539, multivariable) was 0.31. The “HR for PFS” value (XRCC3 rs861539, multivariable) was 0.52, the “HR for OS” value [9] was 0.25 and the “HR for PFS” value [9] was 0.44. The “OS median, months (95% CI)” value (p21 rs1059234 Any C) was 12.4 (5.4, 15.6+) months, the “PFS median, months (95% CI)” value (p21 rs1059234 Any C) was 2.7 (2.1, 3.5) months and the “OS HR (95% CI)‡” value [10] was 0.50 (0.20, 1.25). The “PFS HR (95% CI) ‡” value [10] was 0.74 (0.37, 1.49), the “OS HR (95% CI)†” value [11] was 0.64 (0.27, 1.56) and the “PFS HR (95% CI) †” value [11] was 0.88 (0.44, 1.74). For the same substance, the “OS median, months (95% CI)” value (p21 rs1059234 C/C) was 6.3 (2.7, 10.7+) months, the “PFS median, months (95% CI)” value (p21 rs1059234 C/C) was 2.9 (1.6, 4.9) months and the “OS HR (95% CI)‡” value [12] was 0.67 (0.21, 2.12). The “PFS HR (95% CI) ‡” value [12] was 0.73 (0.30, 1.74), the “OS HR (95% CI)†” value [13] was 0.76 (0.25, 2.35) and the “PFS HR (95% CI) †” value [13] was 0.95 (0.42, 2.16). The “OS median, months (95% CI)” value (p21 rs1059234 T/C) was 12.4 (5.3, 15.6+) months, the “PFS median, months (95% CI)” value (p21 rs1059234 T/C) was 2.7 (2.1, 3.5) months and the “OS HR (95% CI)‡” value [14] was 0.42 (0.15, 1.19). The “PFS HR (95% CI) ‡” value [14] was 0.75 (0.35, 1.60), the “OS HR (95% CI)†” value [15] was 0.59 (0.22, 1.57) and the “PFS HR (95% CI) †” value [15] was 0.84 (0.40, 1.76). For the same substance, the “OS median, months (95% CI)” value (p21 rs1059234 T/T) was 7.2 (3.3, 8.7) months, the “PFS median, months (95% CI)” value (p21 rs1059234 T/T) was 3.3 (1.6, 4.1) months and the “OS median, months (95% CI)” value (p21 rs1801270 A/A) was 7.2 (3.3, 8.7) months. For the same substance, the “PFS median, months (95% CI)” value (p21 rs1801270 A/A) was 3.3 (1.6, 4.1) months, the “OS median, months (95% CI)” value (p21 rs1801270 A/C) was 12.4 (5.3, 15.6+) months and the “PFS median, months (95% CI)” value (p21 rs1801270 A/C) was 2.3 (1.8, 3.5) months. The “OS HR (95% CI)‡” value [16] was 0.39 (0.13, 1.11), the “PFS HR (95% CI) ‡” value [16] was 0.72 (0.34, 1.55) and the “OS HR (95% CI)†” value [17] was 0.53 (0.19, 1.47). For the same substance, the “PFS HR (95% CI) †” value [17] was 0.82 (0.39, 1.74), the “OS median, months (95% CI)” value (p21 rs1801270 Any C) was 12.4 (5.4, 15.6+) months and the “PFS median, months (95% CI)” value (p21 rs1801270 Any C) was 2.7 (2.1, 3.5) months. The “OS HR (95% CI)‡” value (p21 rs1801270 Any C vs A/A, multivariable) was 0.50 (0.20, 1.25).

From patent publication US20190233884A1 (University of Southern California, priority 2016, published 2019)
